Source: PMC3006138, “Fexinidazole – A New Oral Nitroimidazole Drug Candidate Entering Clinical Development for the Treatment of Sleeping Sickness” (PLoS Neglected Tropical Diseases, 2010)
Several values for one entry are separate records, joined by “and”; a condition that tells them apart may be missing. Identical values can stand only once.

How the values were obtained:
[1] = tested on: T. b. rhodesiense (STIB 900); assay: In vitro trypanocidal assay (Alamar Blue); assay type: cell-based, Trypanosoma brucei rhodesiense; details: Trypanosoma brucei, 72 h; read-out: IC50
Description: 10 µL of Alamar Blue was added for the final 3 h to determine viability. […] The IC50 values were calculated from the sigmoidal inhibition curves. For cytotoxicity, 4×10^4/mL L-6 rat skeletal myoblast cells were used, and incubations and assessments carried out as above.

monkey hepatocytes = assay: Hepatocyte intrinsic clearance and metabolite profile; assay type: in vitro ADME, cynomolgus monkey; details: fexinidazole 10 µM
Description: (§1) Fexinidazole was incubated with cryopreserved hepatocytes from male CD-1 mice, male Sprague Dawley rats, male beagle dogs, male cynomolgus monkeys, and from pooled white or African-American human donor samples (purchased commercially), at concentrations of 1 µM and 10 µM. […] The incubated samples were analyzed by LC-MS after extraction into acetonitrile.
A quality control analysis of fexinidazole was performed via 1H-NMR in DMSO and LC- […]
provided by the Swiss Tropical Institute (Basel, Switzerland).
(§2) Reagents and solvents were of analytical grade and obtained from Sigma-Aldrich (St. Louis, […]
Cryopreserved hepatocytes from the male CD1 mouse, lot CSI; male Sprague Dawley rat, lot LPL; male beagle dog, lot BWX; male cynomolgus monkey, lot EHH; and pooled human samples, lot MJI, were purchased from In Vitro Technologies Inc (Baltimore, Maryland, […]
5.4. In vitro Incubations
(§3) On the day of the experiment a 10 mM stock solution of fexinidazole in DMSO was prepared and, within 3 hours, aliquots of this freshly prepared solution, after suitable dilution, were added to the incubation matrix, to reach fexinidazole final concentrations of 1 and 10 µM. The final percentage of DMSO was 0.01% in the incubation samples for the […]
On the day of experiment, the cryopreserved hepatocytes were thawed following the detailed instructions provided by the supplier.
The number of viable cells was determined using a Trypan Blue exclusion method.
5.4.1. Intrinsic Clearance Study […]
µM with mouse, rat, dog, monkey and human hepatocytes (300000 cells/mL for the mouse and 1 million cells/mL for the other species) in a final incubation volume of 0.75 mL […]
(§4) Incubations were performed in duplicate in a 48-well plate under shaking. Sampling was performed using an automatic liquid handling system (Multiprobe II EX, Packard). At 0, 1, 5, 10, 15, 20, 30, 60 and 120 minutes, 50 µL aliquots of the incubates were taken, then 80 µL of ice-cold acetonitrile and 20 µL of 1 µM warfarin in acetonitrile (internal standard) were added, and samples centrifuged at 2000 rpm for 20 min. The supernatant was analyzed by LC-MS/MS. […]
the medium alone at t = 0 and 120 minutes.
For the determination of phase I and phase II activity of hepatocytes, 7-ethoxycoumarin (7-EC) 1 µM, and 7-hydroxycoumarin (7-HC) 30 µM were used as positive controls and incubated under the same conditions as fexinidazole. Aliquots of incubates were taken at 0, 10, 20, 30, 60 and 120 minutes and processed as fexinidazole samples.
5.4.2. Metabolite Profile Study
For metabolite profiling, fexinidazole was incubated at a concentration of 10 µM with mouse, rat, dog, monkey and human hepatocytes (300000 cells/mL for the mouse and 1 million cells/mL for the other species) in a final incubation volume of 2 mL Leibovitz L-15 […]
Aliquots of the incubation samples were taken at t = 0, 30 and 120 minutes; the metabolism was stopped by the addition of an equal volume of cold acetonitrile and the samples centrifuged at 1500 rpm for 20 min. The supernatant was stored at -20°C until analysis. Control incubations were performed with the compound in the medium alone […]
5.5. Analysis of Samples for Intrinsic Clearance Determination
(§5) The analysis of the samples for intrinsic clearance determination was performed by an LC-MS/MS method, using the following conditions:
(§6) HPLC Equipment and Conditions
HPLC system Agilent 1100 binary pump (Agilent, Palo Alto, USA)
Autosampler CTC Pal (Alfatech, San Jose, USA)
(§7) Analytical column Guard Column SB-C8 4.6 x 12.5 mm, 5 µm (Zorbax)
(§8) Column temperature ambient
(§9) Mobile phase A 10 mM ammonium formate pH 4.0: acetonitrile (95:5, v:v)
(§10) Mobile phase B 10 mM ammonium formate pH 4.0: acetonitrile (5:95, v:v) […]
(§11) Gradient conditions Step Total time (min) flow (µL/min) %A % B […]
MS Equipment and Conditions
Mass spectrometer API 4000 Triple Quadrupole (MDS-Sciex, Toronto, […]
Source Turbo Ion Spray (TIS)
Ion mode Positive for fexinidazole and 7-EC.
Negative for 7-HC, 7-HC sulphate and 7-HC glucuronide.

[2] = tested on: hepatocytes from African American donors; assay: as above; assay type: in vitro ADME, human; details: fexinidazole 10 µM
Description: as §1
Fexinidazole sulfoxide, lot 1106-I-0170, 99.3% purity, and fexinidazole sulfone, lot 1106-I-0171, 99.9% purity, were provided by the Sponsor.
Cryopreserved hepatocytes of five single donors, lots EHI, REL, KSE […]
ZIJ and MRS, were purchased from In Vitro Technologies Inc (Baltimore, Maryland, USA).
The certificates of analysis are reported in Appendix 1.
as §2
7.5. In Vitro Incubations
as §3
The cryopreserved hepatocytes were thawed according to the supplier’s procedure and the number of viable cells was determined using the Trypan Blue exclusion method. Viabilities were 92% for lot EHI, 89% for lot REL, 82% for lot KSE, 86% for lot ZIJ and 86% for lot MRS in the intrinsic clearance study. In the metabolite profile study viabilities were 91% for lot EHI, 90% for lot REL, 85% for lot KSE, 84% for lot ZIJ and 87% for lot MRS.
Afterwards, the same amount of viable cells for each donor were pooled and used for the incubations of fexinidazole.
7.5.1. Intrinsic Clearance Study […]
as §4, with “µM with pooled human hepatocytes (1 million cells/mL) in a final incubation volume of 1 mL Leibovitz L-15 medium, at 37°C. Incubations” for “Incubations”
The chemical stability of fexinidazole was checked by incubating the compound at 37°C in the medium alone at t = 0 and 120 minutes.
For the determination of phase I and phase II activities of hepatocytes, 7-ethoxycoumarin (7-ETC) 1 µM, and 7-hydroxycoumarin (7-HC) 30 µM were used as positive controls and incubated under the same conditions as fexinidazole. Aliquots of incubates were taken at 0, 1, 5, 10, 15, 20, 30, 60 and 120 minutes and processed as fexinidazole samples.
7.5.2. Metabolite Profile Study
For metabolite profiling, fexinidazole was incubated at a concentration of 10 µM with pooled human hepatocytes (1 million cells/mL) in a final incubation volume of 2 mL Leibovitz L-15 medium, at 37°C. Aliquots of the incubation samples were taken at t = 0, 30 and 120 minutes; the metabolism was stopped by the addition of an equal volume of cold acetonitrile and the samples centrifuged at 1100 rpm for 20 min. The supernatant was stored at -20°C until analysis. Control incubations were performed with the compound in the medium alone for 120 minutes.
7.6. Analysis of the Samples of Intrinsic Clearance Study
as §5, §6
HPLC system 1100 binary pump (Agilent, Palo Alto, USA)
Autosampler 2777 (Waters)
as §7, §8, §9, §10, §11

Structure (SMILES) | IC50 [1] | % of total drug related material (monkey hepatocytes; t=0) [%] | % of total drug related material ([2]; 30 min) [%] | % of total drug related material ([2]; t=0) [%] | % of total drug related material (monkey hepatocytes; 30 min) [%] | % of total drug related material (monkey hepatocytes; 120 min) [%] | % of total drug related material ([2]; 120 min) [%]
CSc1ccc(OCc2ncc([N+](=O)[O-])n2C)cc1 [Fexinidazole, 1-methyl-2-((p-(methylthio)phenoxy)methyl)-5-nitroimidazole] | 0.48 µg/mL to 0.82 µg/mL and 1.71 µM to 2.93 µM | 53 | 1 | 77 | – | – | –
Cn1c([N+](=O)[O-])cnc1COc1ccc([S+](C)[O-])cc1 (stereo not drawn) [Fexinidazole sulfoxide] | 0.41 µg/mL to 0.49 µg/mL and 1.33 µM to 1.65 µM | 47 | 98 | 23 | 60 | 42 | 98
Cn1c([N+](=O)[O-])cnc1COc1ccc(S(C)(=O)=O)cc1 [Fexinidazole sulfone] | 0.35 µg/mL to 0.4 µg/mL and 1.14 µM to 1.3 µM | – | – | – | 40 | 58 | 1
